Results published in the supplement of paper PMC10307832.

What was measured:
Assay in all cases: relative viability (nuclei count vs DMSO), 5 days (fraction); higher = more cells survive
AZ505 + Olaparib = compound: C1CCC(CC1)N(CCNCCC2=C3C(=C(C=C2)O)NC(=O)CO3)C(=O)CCNCCC4=CC(=C(C=C4)Cl)Cl [AZ505] + O=C(c1cc(Cc2n[nH]c(=O)c3ccccc23)ccc1F)N1CCN(C(=O)C2CC2)CC1 [Olaparib] (partner 8 µM)
Summary of the method: (§1)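 Medians of duplicate plates are given as relative viability. That measure is the nuclei count in treated wells divided by the count in vehicle wells. Counts were taken on 4× images of lung cancer cell lines in 1536-well plates, 5 days after pin-tool dosing the day after seeding with one drug alone or a fixed anchor-drug dose plus five library-drug doses (not always all listed) in √10 steps.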

AZ505 + Lapatinib = compound: C1CCC(CC1)N(CCNCCC2=C3C(=C(C=C2)O)NC(=O)CO3)C(=O)CCNCCC4=CC(=C(C=C4)Cl)Cl [AZ505] + CS(=O)(=O)CCNCc1ccc(-c2ccc3ncnc(Nc4ccc(OCc5cccc(F)c5)c(Cl)c4)c3c2)o1 [Lapatinib] (partner 2 µM)
Summary of the method: as §1

AZ505 + Tozasertib = compound: C1CCC(CC1)N(CCNCCC2=C3C(=C(C=C2)O)NC(=O)CO3)C(=O)CCNCCC4=CC(=C(C=C4)Cl)Cl [AZ505] + Cc1cc(Nc2cc(N3CCN(C)CC3)nc(Sc3ccc(NC(=O)C4CC4)cc3)n2)n[nH]1 [Tozasertib] (partner 0.1 µM)
Summary of the method: as §1

AZ505 + Bortezomib = compound: C1CCC(CC1)N(CCNCCC2=C3C(=C(C=C2)O)NC(=O)CO3)C(=O)CCNCCC4=CC(=C(C=C4)Cl)Cl [AZ505] + CC(C)C[C@H](NC(=O)[C@H](Cc1ccccc1)NC(=O)c1cnccn1)B(O)O [Bortezomib] (partner 0.002 µM)
Summary of the method: as §1

Cell Line	relative viability (AZ505 + Olaparib; first compound 0.08 µM)	relative viability (AZ505 + Olaparib; first compound 0.253 µM)	relative viability (AZ505 + Olaparib; first compound 0.8 µM)	relative viability (AZ505 + Olaparib; first compound 2.53 µM)	relative viability (AZ505 + Olaparib; first compound 8 µM)	relative viability (AZ505 + Lapatinib; first compound 0.08 µM)	relative viability (AZ505 + Lapatinib; first compound 0.253 µM)	relative viability (AZ505 + Lapatinib; first compound 0.8 µM)	relative viability (AZ505 + Lapatinib; first compound 2.53 µM)	relative viability (AZ505 + Lapatinib; first compound 8 µM)	relative viability (AZ505 + Tozasertib; first compound 0.08 µM)	relative viability (AZ505 + Tozasertib; first compound 0.253 µM)	relative viability (AZ505 + Tozasertib; first compound 0.8 µM)	relative viability (AZ505 + Tozasertib; first compound 2.53 µM)	relative viability (AZ505 + Tozasertib; first compound 8 µM)	relative viability (AZ505 + Bortezomib; first compound 0.08 µM)	relative viability (AZ505 + Bortezomib; first compound 0.253 µM)	relative viability (AZ505 + Bortezomib; first compound 0.8 µM)	relative viability (AZ505 + Bortezomib; first compound 2.53 µM)	relative viability (AZ505 + Bortezomib; first compound 8 µM)
EMC-BAC-2	0.453	0.541	0.487	0.524	0.437	0.819	0.905	0.814	0.837	0.904	0.268	0.323	0.299	0.274	0.275	0.988	1.03	0.972	1.01	1.1
LU99A	0.279	0.298	0.289		0.265	0.915	0.965	0.931	1.04	1.01		0.306	0.279	0.286	0.332	1.02	1.08	1.05	1.18	1.18
ABC-1	0.688		0.841	0.807	1.2		1.1	1.11	1.12	1.23	0.116	0.185	0.168	0.168	0.167	0.31	0.281	0.303	0.313	0.256
NCI-H2347	0.554	0.505	0.489	0.489	0.52	0.555	0.64	0.607	0.508	0.772	0.492				0.54		0.801	0.75		0.681
NCI-H1993	0.995	1.12	1.14	1.01	1.16	0.838	0.764	0.871	0.782	0.941	0.611	0.529	0.58	0.539	0.529	0.894	1.09	0.937	1.25	1.04
NCI-H322M	0.576		0.707	0.768	0.844	0.535	0.539	0.611	0.475	0.576	0.451	0.478	0.467	0.484	0.465	1.29	1.15	1.39	1.22	1.34
NCI-H838	0.688	0.765	0.744	0.787	0.776	0.941	0.8	0.893	0.894	0.903	0.253	0.286	0.257	0.268	0.265	0.805	0.609	0.761	0.564	0.884
HARA	0.451		0.734	0.631	0.761	0.636	0.501	0.651	0.802	0.681	0.165	0.102	0.0957	0.106	0.0964	1.04	1.01	0.914	1.03	0.916
NCI-H2087	0.515	0.536	0.552	0.629	0.611	0.856	1.01	0.983	1.31	0.958	0.223	0.181	0.244	0.241	0.245	0.686	0.845	0.732	0.849	0.91
NCI-H1437	0.623	0.623	0.632	0.595	0.637	0.765	0.729	0.757	0.738	0.831	0.396	0.424	0.382	0.391	0.403	0.551	0.453	0.49	0.405	0.743
NCI-H650	0.386	0.462	0.425	0.497	0.356	0.849	0.925	1.18	1.06	1.06	0.733	0.705	0.729	0.726	0.736	0.607	0.793	0.818	1.02	0.775
COR-L23	0.282	0.344	0.32	0.374	0.38	0.873	0.987	0.878	0.82	0.74	0.181	0.177	0.22	0.179	0.146	0.996	1.1	0.888	0.925	0.832
COR-L 105	0.405	0.657	0.698	0.715	0.554	0.344	0.302	0.349	0.339	0.372	0.354	0.34	0.341	0.335	0.403	0.712	0.907	0.813	0.65	0.77
201T	0.851	0.857	0.82	0.862	0.846	1	1.04	0.957	1.04	1.01	0.896	1.08	0.905	0.943	0.875	1.09	1.11	1.06	1.11	1.07
HCC-44	0.928	1.01	1.02	1	1.05	0.926	1.09	0.974	1.11	1.06	0.887	0.992	0.922	0.88	1.04	0.865	0.883	0.879	0.915	0.86
NCI-H596	0.743		0.704	0.722	0.598	0.977	0.94	0.885	0.876	1.05	0.845	0.894	0.708	0.821	0.726	0.963	0.847	0.756	1.19	1.03
H3255	0.55	0.564	0.569	0.601	0.597	0.249	0.235	0.268	0.283	0.247	0.639	1.17	0.564	0.503	0.577	0.558	0.812	0.817	0.804	0.758
